{"source": "ChEMBL document CHEMBL3885881", "about": "“DrugMatrix”", "organism": "Rattus norvegicus", "assay": "DrugMatrix - Regimen: Daily Repeat", "assay_type": "toxicity, organism-based, Sprague-Dawley", "parameters": "regimen Daily Repeat, gender Male, age 6-8 weeks", "conditions": "in vivo, po, 0 mg/kg, route oral GAVAGE, dose level Control, vehicle 100 % WATER; for ABSOLUTE BASOPHIL / ABSOLUTE EOSINOPHIL / ABSOLUTE LYMPHOCYTE / ABSOLUTE MONOCYTE / ABSOLUTE SEGMENTED NEUTROPHIL / BASOPHIL / EOSINOPHIL / ERYTHROCYTE COUNT / HEMATOCRIT / HEMOGLOBIN / LEUKOCYTE COUNT / LYMPHOCYTE / MEAN CORPUSCULAR HEMOGLOBIN / MEAN CORPUSCULAR HEMOGLOBIN CONCENTRATION / MEAN CORPUSCULAR VOLUME / MONOCYTE / NEUTROPHIL / NUCLEATED RED BLOOD CELLS / PLATELET COUNT: tissue Blood; for ALANINE AMINOTRANSFERASE / ALKALINE PHOSPHATASE / ASPARTATE AMINOTRANSFERASE / BLOOD UREA NITROGEN / CARBON DIOXIDE / CHLORIDE / CHOLESTEROL / CREATINE PHOSPHOKINASE / CREATININE / GLUCOSE / LACTATE DEHYDROGENASE / LIPASE / PHOSPHORUS / POTASSIUM / SODIUM / TOTAL BILIRUBIN / TOTAL PROTEIN / URIC ACID: tissue Plasma", "data": [{"smiles": "O=C1NC(=O)C(c2ccccc2)(c2ccccc2)N1", "note": "[PHENYTOIN]", "values": [{"measurement": "ABSOLUTE BASOPHIL", "setting": "72 h, time 3 day", "result": 0, "unit": "CELLS/uL"}, {"measurement": "ABSOLUTE EOSINOPHIL", "setting": "72 h, time 3 day", "result": 123.17, "unit": "CELLS/uL"}, {"measurement": "ABSOLUTE LYMPHOCYTE", "setting": "72 h, time 3 day", "result": 12677.83, "unit": "CELLS/uL"}, {"measurement": "ABSOLUTE MONOCYTE", "setting": "72 h, time 3 day", "result": 66.17, "unit": "CELLS/uL"}, {"measurement": "ABSOLUTE SEGMENTED NEUTROPHIL", "setting": "72 h, time 3 day", "result": 1149.5, "unit": "CELLS/uL"}, {"measurement": "BASOPHIL", "setting": "72 h, time 3 day", "result": 0, "unit": "%"}, {"measurement": "EOSINOPHIL", "setting": "72 h, time 3 day", "result": 0.83, "unit": "%"}, {"measurement": "ERYTHROCYTE COUNT", "setting": "72 h, time 3 day", "result": 5.26, "unit": "x10E6/uL"}, {"measurement": "HEMATOCRIT", "setting": "72 h, time 3 day", "result": 33.07, "unit": "%"}, {"measurement": "HEMOGLOBIN", "setting": "72 h, time 3 day", "result": 13.43, "unit": "G/DL"}, {"measurement": "LEUKOCYTE COUNT", "setting": "72 h, time 3 day", "result": 14.02, "unit": "x10E3/uL"}, {"measurement": "LYMPHOCYTE", "setting": "72 h, time 3 day", "result": 90.17, "unit": "%"}, {"measurement": "MEAN CORPUSCULAR HEMOGLOBIN", "setting": "72 h, time 3 day", "result": 25.62, "unit": "pg"}, {"measurement": "MEAN CORPUSCULAR HEMOGLOBIN CONCENTRATION", "setting": "72 h, time 3 day", "result": 40.65, "unit": "G/DL"}, {"measurement": "MEAN CORPUSCULAR VOLUME", "setting": "72 h, time 3 day", "result": 63, "unit": "fL"}, {"measurement": "MONOCYTE", "setting": "72 h, time 3 day", "result": 0.5, "unit": "%"}, {"measurement": "NEUTROPHIL", "setting": "72 h, time 3 day", "result": 8.5, "unit": "%"}, {"measurement": "NUCLEATED RED BLOOD CELLS", "setting": "72 h, time 3 day", "result": "0.17 /100WBC"}, {"measurement": "PLATELET COUNT", "setting": "72 h, time 3 day", "result": 1142.83, "unit": "x10E3/uL"}, {"measurement": "ALANINE AMINOTRANSFERASE", "setting": "72 h, time 3 day", "result": 45.17, "unit": "u/L"}, {"measurement": "ALKALINE PHOSPHATASE", "setting": "72 h, time 3 day", "result": 340.17, "unit": "u/L"}, {"measurement": "ASPARTATE AMINOTRANSFERASE", "setting": "72 h, time 3 day", "result": 77.33, "unit": "u/L"}, {"measurement": "BLOOD UREA NITROGEN", "setting": "72 h, time 3 day", "result": 14.67, "unit": "mg/dL"}, {"measurement": "CARBON DIOXIDE", "setting": "72 h, time 3 day", "result": 28.67, "unit": "mmol/L"}, {"measurement": "CHLORIDE", "setting": "72 h, time 3 day", "result": 101.17, "unit": "MEQ/L"}, {"measurement": "CHOLESTEROL", "setting": "72 h, time 3 day", "result": 77.67, "unit": "mg/dL"}, {"measurement": "CREATINE PHOSPHOKINASE", "setting": "72 h, time 3 day", "result": 263.67, "unit": "u/L"}, {"measurement": "CREATININE", "setting": "72 h, time 3 day", "result": 0.15, "unit": "mg/dL"}, {"measurement": "GLUCOSE", "setting": "72 h, time 3 day", "result": 169.33, "unit": "mg/dL"}, {"measurement": "LACTATE DEHYDROGENASE", "setting": "72 h, time 3 day", "result": 230, "unit": "u/L"}, {"measurement": "LIPASE", "setting": "72 h, time 3 day", "result": 9.67, "unit": "u/L"}, {"measurement": "PHOSPHORUS", "setting": "72 h, time 3 day", "result": 11.8, "unit": "mg/dL"}, {"measurement": "POTASSIUM", "setting": "72 h, time 3 day", "result": 5.91, "unit": "MEQ/L"}, {"measurement": "SODIUM", "setting": "72 h, time 3 day", "result": 142.88, "unit": "MEQ/L"}, {"measurement": "TOTAL BILIRUBIN", "setting": "72 h, time 3 day", "result": 0.22, "unit": "mg/dL"}, {"measurement": "TOTAL PROTEIN", "setting": "72 h, time 3 day", "result": 5.7, "unit": "G/DL"}, {"measurement": "URIC ACID", "setting": "72 h, time 3 day", "result": 1.35, "unit": "mg/dL"}, {"measurement": "ABSOLUTE BASOPHIL", "setting": "120 h, time 5 day", "result": 0, "unit": "CELLS/uL"}, {"measurement": "ABSOLUTE EOSINOPHIL", "setting": "120 h, time 5 day", "result": 125, "unit": "CELLS/uL"}, {"measurement": "ABSOLUTE LYMPHOCYTE", "setting": "120 h, time 5 day", "result": 13809, "unit": "CELLS/uL"}, {"measurement": "ABSOLUTE MONOCYTE", "setting": "120 h, time 5 day", "result": 351, "unit": "CELLS/uL"}, {"measurement": "ABSOLUTE SEGMENTED NEUTROPHIL", "setting": "120 h, time 5 day", "result": 1581.67, "unit": "CELLS/uL"}, {"measurement": "BASOPHIL", "setting": "120 h, time 5 day", "result": 0, "unit": "%"}, {"measurement": "EOSINOPHIL", "setting": "120 h, time 5 day", "result": 0.67, "unit": "%"}, {"measurement": "ERYTHROCYTE COUNT", "setting": "120 h, time 5 day", "result": 5.53, "unit": "x10E6/uL"}, {"measurement": "HEMATOCRIT", "setting": "120 h, time 5 day", "result": 34.83, "unit": "%"}, {"measurement": "HEMOGLOBIN", "setting": "120 h, time 5 day", "result": 13.9, "unit": "G/DL"}, {"measurement": "LEUKOCYTE COUNT", "setting": "120 h, time 5 day", "result": 15.87, "unit": "x10E3/uL"}, {"measurement": "LYMPHOCYTE", "setting": "120 h, time 5 day", "result": 87.5, "unit": "%"}, {"measurement": "MEAN CORPUSCULAR HEMOGLOBIN", "setting": "120 h, time 5 day", "result": 25.25, "unit": "pg"}, {"measurement": "MEAN CORPUSCULAR HEMOGLOBIN CONCENTRATION", "setting": "120 h, time 5 day", "result": 40.08, "unit": "G/DL"}, {"measurement": "MEAN CORPUSCULAR VOLUME", "setting": "120 h, time 5 day", "result": 63.05, "unit": "fL"}, {"measurement": "MONOCYTE", "setting": "120 h, time 5 day", "result": 2.17, "unit": "%"}, {"measurement": "NEUTROPHIL", "setting": "120 h, time 5 day", "result": 9.67, "unit": "%"}, {"measurement": "NUCLEATED RED BLOOD CELLS", "setting": "120 h, time 5 day", "result": "0 /100WBC"}, {"measurement": "PLATELET COUNT", "setting": "120 h, time 5 day", "result": 1044, "unit": "x10E3/uL"}, {"measurement": "ALANINE AMINOTRANSFERASE", "setting": "120 h, time 5 day", "result": 50.67, "unit": "u/L"}, {"measurement": "ALKALINE PHOSPHATASE", "setting": "120 h, time 5 day", "result": 395, "unit": "u/L"}, {"measurement": "ASPARTATE AMINOTRANSFERASE", "setting": "120 h, time 5 day", "result": 86, "unit": "u/L"}, {"measurement": "BLOOD UREA NITROGEN", "setting": "120 h, time 5 day", "result": 15.33, "unit": "mg/dL"}, {"measurement": "CARBON DIOXIDE", "setting": "120 h, time 5 day", "result": 29.33, "unit": "mmol/L"}, {"measurement": "CHLORIDE", "setting": "120 h, time 5 day", "result": 101.5, "unit": "MEQ/L"}, {"measurement": "CHOLESTEROL", "setting": "120 h, time 5 day", "result": 71.33, "unit": "mg/dL"}, {"measurement": "CREATINE PHOSPHOKINASE", "setting": "120 h, time 5 day", "result": 323.17, "unit": "u/L"}, {"measurement": "CREATININE", "setting": "120 h, time 5 day", "result": 0.18, "unit": "mg/dL"}, {"measurement": "GLUCOSE", "setting": "120 h, time 5 day", "result": 145.67, "unit": "mg/dL"}, {"measurement": "LACTATE DEHYDROGENASE", "setting": "120 h, time 5 day", "result": 389.5, "unit": "u/L"}, {"measurement": "LIPASE", "setting": "120 h, time 5 day", "result": 9.83, "unit": "u/L"}, {"measurement": "PHOSPHORUS", "setting": "120 h, time 5 day", "result": 11.35, "unit": "mg/dL"}, {"measurement": "POTASSIUM", "setting": "120 h, time 5 day", "result": 6.39, "unit": "MEQ/L"}, {"measurement": "SODIUM", "setting": "120 h, time 5 day", "result": 142.77, "unit": "MEQ/L"}, {"measurement": "TOTAL BILIRUBIN", "setting": "120 h, time 5 day", "result": 0.18, "unit": "mg/dL"}, {"measurement": "TOTAL PROTEIN", "setting": "120 h, time 5 day", "result": 6.1, "unit": "G/DL"}, {"measurement": "URIC ACID", "setting": "120 h, time 5 day", "result": 1.52, "unit": "mg/dL"}]}]}
